Data set [1] has as its target T1, recombinant his tagged human SphK1 (Homo sapiens, UniProt Q9NYA1).
T1 construct: His tag; made in house; host or cells: insect cells (baculovirus system)
In words: SphK1 activity assay (32P-labelled S1P production). The data set is classed as biochemical. The settings on record: 10 μM compound; % of activity compared to control (DMSO vehicle only). As to the method:
(§1) The SphK assays employed, measure SphK activity through the production of ^32P-labelled S1P following the addition of exogenous Sph and [γ^32P] ATP.
(§2) Activities of SphK1 and SphK2 were determined using identical assay conditions with the exception that SphK1 assays used 3 ng/assay recombinant his tagged human SphK1 (made in the lab in a baculovirus system using insect cells), while SphK2 assays used 30 ng/assay recombinant human SphK2 (purchased by Johnson and Johnson).
(§3) Compounds were dissolved in DMSO at 10 mM, the mixture was vortexed (and sonicated if necessary). Stock solutions were kept at 4° C. until used.
(§4) Aliquots were made containing 100 μM drug compound. These aliquots were then diluted in assay buffer: 100 mM tris/HCl pH 7.4, 100 mM NaCl, 1 mM sodium orthovanadate, 10 mM NaF to make up a 10 μM solution.
(§5) Recombinant enzyme was diluted in assay buffer (above) to make up a final concentration of 0.03 ng/μL (SphK1) or 0.33 ng/μL (SphK2).
(§6) 40 μL recombinant enzyme was added to an Eppendorf® Safe-Lock® microcentrifuge tube. This was followed by the addition of drug compound from prepared aliquots, before adding ATP, [γ^32P]ATP and Sph. Note: ATP stock is made up in 1M Tris pH 7.4 and 200 mM MgCl2. This allows ATP to complex with Mg and be available as a substrate.
(§7) The rest of the reaction mixture was then added to the enzyme sample (Table 1). All reactions were performed as triplicates.
(§8) Reaction mixture was prepared with sufficient volume to assay all of the required samples. To do this, each of the volumes shown was multiplied by n+1, where n is the number of samples to be assayed. Assay buffer used is made up of 100 mM tris/HCl pH 7.4, 100 mM NaCl, 1 mM sodium orthovanadate and 10 mM NaF.
(§9) The mixture was then incubated at 37° C. for 20 min (SphK1)/45 min (SphK2).
(§10) To the 100 μL assay mixture, add 270 μl of chloroform/methanol/conc. HCl (100:200:1).
(§11) 20 μL of 5 M KCl was then added to the assay mixture.
(§12) 70 μL of chloroform was added to create phase separation. The solution was vortexed to mix well.
(§13) The solution was then centrifuged for 5 min at 13,000×g to fully separate the phases.
(§14) The upper aqueous/methanol phase was separated by aspiration.
(§15) 50 μL of the remaining lower chloroform phase […] was applied onto the TLC plate by repeatedly spotting a few microliters of liquid (<5 mm diameter circle) between each sample spot with the pipette tip. The liquid was then allowed to absorb into the plate before drying with a stream of air.
(§16) The TLC plate was developed in a glass TLC developing tank with 1-butanol/ethanol/glacial acetic acid/H2O (8:2:1:2) until the mobile phase is within 1 cm of the top of the TLC plate.
(§17) The TLC plate was then exposed to a storage phosphor screen overnight. Storage phosphor screens work by capturing images produced by ionising radiation (e.g. ^32P). The phosphorimager stimulates the screen which uses lasers to convert the latent signal to light. Light is proportional to the amount of radioactivity in the sample. The image is then quantified using standard quantification software (ImageQuant™). Whatman paper with the assay mixture dilutions, was included to assist quantification of the phosphor signal.
(§18) Once the storage phosphor screen was read using the phosphorimager, S1P spots, which have an Rf of 0.7 with the mobile phase employed, were quantified.
(§19) The S1P spot intensity can be converted to the amount of phosphate transferred/min/mg protein.

A further data set has as its target T2, recombinant human SphK2 (Homo sapiens, UniProt Q9NRA0).
T2 construct: purchased Johnson and Johnson
T2 sequence (Q9NRA0 1-654): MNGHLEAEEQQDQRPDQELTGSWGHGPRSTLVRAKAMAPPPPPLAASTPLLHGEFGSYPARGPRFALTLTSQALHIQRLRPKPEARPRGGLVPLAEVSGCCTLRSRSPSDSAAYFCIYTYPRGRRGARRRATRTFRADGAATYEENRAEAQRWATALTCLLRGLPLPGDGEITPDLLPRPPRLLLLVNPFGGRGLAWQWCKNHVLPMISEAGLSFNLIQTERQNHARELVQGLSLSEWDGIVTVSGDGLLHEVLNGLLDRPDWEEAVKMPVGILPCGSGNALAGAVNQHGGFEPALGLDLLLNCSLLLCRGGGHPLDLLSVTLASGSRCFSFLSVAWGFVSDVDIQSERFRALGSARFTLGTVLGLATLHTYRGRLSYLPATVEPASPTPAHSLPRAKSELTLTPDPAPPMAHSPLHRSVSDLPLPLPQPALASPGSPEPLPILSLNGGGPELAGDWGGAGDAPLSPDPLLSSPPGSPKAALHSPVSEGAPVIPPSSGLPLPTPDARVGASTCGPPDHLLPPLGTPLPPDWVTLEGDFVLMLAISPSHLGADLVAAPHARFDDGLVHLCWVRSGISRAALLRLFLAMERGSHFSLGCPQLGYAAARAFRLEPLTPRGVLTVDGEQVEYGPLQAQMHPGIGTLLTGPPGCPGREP
In words: SphK2 activity assay (32P-labelled S1P production). The data set is classed as biochemical. The settings on record: 10 μM compound, % of activity compared to control (DMSO vehicle only); for remaining activity at 10 µM: read-out: SphK2% actvity at 10 μm. How it is done: as §1, §2, §3, §4, §5, §6, §7, §8, §9, §10, §11, §12, §13, §14, §15, §16, §17, §18, §19

Data set [2] has as its target T3, SphK1a in Flpln-SphK1a cells (Flp-In T-Rex HEK293) (Homo sapiens, UniProt Q9NYA1).
T3 construct: expressed in transfected cells; host or cells: Flp-In T-Rex HEK293 cells, doxycycline-induced
In words: SphK1 proteasomal degradation study (immunoblotting). The settings on record: 10 μM test compound, 24 h. The format is cell-based. How it is done: These studies were performed as previously described for the drug SKI-II (C. Loveridge et al. J. Biol. Chem. 2010, 285, 38891). […] After 24 h cells were treated with 10 μm test compound, 10 μm MG132, or both. DMSO was used as the vehicle control. After a further 24 h, cells were harvested, lysed, and subjected to SDS-PAGE and immunoblotting with anti-FLAG (Sigma), anti-ERK1/2 (Promega), or anti-a-tubulin (Abcam) antibodies.
(In western blotting, separated proteins are transferred to a membrane and probed.)

For data set [3], the system named is PC3 prostate cancer cell lines. In words: Anticancer activity in PC3 cell line, CellTitre AQueous One cell viability assay. The note with it: concentration required to inhibit cell proliferation by 50%, 72 hours. The data set is classed as cell-based. As to the method:
Measurement of Anticancer Activity in PC3 Cell Line Assays
PC3 prostate cancer cell lines were cultured in DMEM (containing 10% fetal calf serum and penicillin-streptomycin).
Before treatment with drug compounds, cells were plated at 2,500 cells/well in 96 well plates and incubated at 37° C. with 5% CO2 in a humidified incubator for 24 hours prior. Cells were only plated in columns 3-10 and rows C—F to ensure uniform humidity and warmth across all wells. The remaining wells were filled with 100 μL of phosphate buffered saline.
Drug stock solutions (50 or 10 mM) were diluted×1000 in media to a final concentration of either 50 μM or 10 μM with a DMSO vehicle concentration of 0.1%.
Cell culture supernatants were aspirated and replaced with drug containing media. Drug treatments were performed in duplicate wells, while potential plate layout-specific variation in cell growth was accounted for by addition of a vehicle control (0.1% DMSO).
Cells were then incubated with drug compounds at 37° C. with 5% CO2 in a humidified incubator for 72 hours prior to assay.
Media was diluted with CellTitre AQueous One Solution (Promega, Australia; Cat # G3580) according to manufacturer's instructions to produce a final concentration of 317 μg/mL.
Cell culture supernatants were then aspirated from wells and replaced with 100 μL of CellTitre solution. Triplicate cell-free control wells containing only CellTitre solution were also included in each assay.
Cells were then incubated at 37° C. with 5% CO2 in a humidified incubator for 1 hour at which time absorbance was read at 490 nm with an EnVision microplate reader (Perkin Elmer, Australia).
When analysing data, background absorbance (taken from cell-free control wells) was subtracted from each reading. […] For each drug concentration the mean (±SEM) is calculated and graphed using GraphPad Prism (version 5). A sigmoidal curved is fitted to the data and used to calculate the IC50 of each compound.

Data set [4] deals with T4, Dihydroceramide Desaturase-1 (Des1) (Homo sapiens, UniProt O15121).
T4 construct: These modifications included the use of parental Jurkat cells; endogenous in cells; host or cells: parental Jurkat cells
T4 sequence (O15121 1-323): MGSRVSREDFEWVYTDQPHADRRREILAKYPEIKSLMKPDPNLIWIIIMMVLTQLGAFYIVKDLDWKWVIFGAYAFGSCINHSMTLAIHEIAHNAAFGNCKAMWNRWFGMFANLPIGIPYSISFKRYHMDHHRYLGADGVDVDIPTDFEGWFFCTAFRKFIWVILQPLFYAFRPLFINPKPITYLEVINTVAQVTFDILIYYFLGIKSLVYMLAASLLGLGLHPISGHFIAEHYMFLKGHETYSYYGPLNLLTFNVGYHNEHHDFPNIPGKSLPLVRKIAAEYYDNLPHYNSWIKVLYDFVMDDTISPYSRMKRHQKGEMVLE
The data set can be described thus: Dihydroceramide desaturase-1 (Des1) activity by HPLC in intact Jurkat cells labeled with DhCer-C6-NBD. The note with it: intact Jurkat cells; for IC50: read-out: Des 1 IC50. The format is cell-based. As to the method:
Measurement of Dihydroceramide Desaturase-1 (Des1) Activity:
These modifications included the use of parental Jurkat cells, 0.5% serum in the culture media, and cell harvesting via centrifugation at 500×g to maximise ceramide extraction. Extracted samples (50 ul) were analysed on a Waters HPLC coupled to a fluorescence detector using a 30 cm C18 reverse-phase column eluted with 1 ml/min 20% H2O and 80% acetonitrile, both with a 0.1% of trifluoroacetic acid.

In the next data set the test system is MCF7 breast cancer cells. The data set can be described thus: Anticancer activity in MCF7 cell lines, MTS assay. The format is cell-based. The note with it: Homo sapiens, concentration required to inhibit cell proliferation by 50%, 72 hrs, read-out: MCF-7 IC50. How it is done: Measurement of Anticancer Activity in MCF7 Cell Lines
MCF7 breast cancer cells were treated with the test compounds and incubated at 37° C., 5% CO2 in air for 72 hrs. The MTS assay was conducted with addition of prepared MTS solution followed by 2 hr incubation, an OD reading and the raw data recorded. The data was managed in tabular form, values adjusted for vehicle control, and the adjusted values graphed as a sigmoidal curve and the EC50 value calculated.
For orientation: Formazan colour is commonly taken as a measure of viable cells.

Data set [5] has as its system Neonatal cardiac fibroblasts (NCFs) collagen synthesis. The data set can be described thus: Inhibition of NCF collagen synthesis by 3H-proline incorporation. The data set is classed as cell-based.
Protocol: Neonatal cardiac fibroblasts (NCFs) were isolated as previously reported (Lekawanvijit, S. Wang, B. H., Krum, H. Eur Heart J. 2010, 31(14), 1771-9). After isolation, NCF (passage 0) were placed into T75 cell culture flasks (BD Falcon, NSW, Australia) and maintained in high-glucose (25 mM) DMEM containing 5.33 mM KCl (Invitrogen, Mount Waverley, Vic, Australia) in the presence of 1% antibiotic/antimycotic (Invitrogen, Mount Waverley, Vic, Australia) and 10% fetal bovine serum (FBS) (JRH biosciences). Cells were incubated at 37° C. with 5% CO2 for overnight and then the media were changed. NCF confluence was checked microscopically and NCF were sub-cultured. After removing media and 3× wash with warm 1×PBS, 2 ml of warm 0.05% trypsin-EDTA was added to each flask. Flasks were placed back into the 37° C. incubator for 1-2 minutes to allow cells to lift off the surface of the flasks. Trypsin was inactivated by adding 8 ml of DMEM containing 10% FBS. NCF (passage 1) were centrifuged for 6 minutes at 1300 rpm at RT. Cell pellets was washed 3× with DMEM+10% FBS and resuspended in DMEM+10% FBS. Cells were then placed into new flasks and incubated at 37° C. with 5% CO2 for 48 hours.
To seed NCF, steps from trypsinization to resuspension were repeated as above. NCF (passage 2) were counted with the ‘Countess’ cell counter. […]

T1 sequence (Q9NYA1 whole entry): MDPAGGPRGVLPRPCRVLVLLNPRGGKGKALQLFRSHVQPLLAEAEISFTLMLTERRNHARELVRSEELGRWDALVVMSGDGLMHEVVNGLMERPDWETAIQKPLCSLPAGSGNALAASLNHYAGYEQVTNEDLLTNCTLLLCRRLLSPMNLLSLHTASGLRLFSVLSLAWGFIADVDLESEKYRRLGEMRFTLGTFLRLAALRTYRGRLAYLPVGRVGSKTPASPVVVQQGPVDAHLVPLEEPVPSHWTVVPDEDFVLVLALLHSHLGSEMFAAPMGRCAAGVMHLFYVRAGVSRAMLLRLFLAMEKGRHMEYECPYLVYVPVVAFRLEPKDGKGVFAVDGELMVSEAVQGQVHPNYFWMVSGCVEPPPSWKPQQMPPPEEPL
T3 sequence (Q9NYA1 whole entry): as above

Turning to “3-(4-(5-(4-Chlorophenyl)-1,3,4-oxadiazol-2-yl)phenyl)-1,2,4-oxadiazol-5(4H)-one [Example E-15]”, the “SphK1% activity at 10 μm” value in data set [1] is listed as 50-80%. Moreover, at recombinant human SphK2, the “SphK2% actvity at 10 μm” value is 80-100%. For the same compound, the “% SphK1a degradation at 10 μM” value in data set [2] is 50%. The same compound came in with an IC50 in data set [3] of 0.1 to 1 µM.

On to “3-(4-((5-(4-Chlorophenyl)-1,3,4-oxadiazol-2-yl)amino)phenyl)-1,2,4-oxadiazol-5(4H)-one [Example E-16]”, for which the “SphK1% activity at 10 μm” value in data set [1] is recorded as 100-150%. The “SphK2% actvity at 10 μm” value on recombinant human SphK2 is 100-150%. The same compound yielded an IC50 in data set [3] of 0.1 to 1 µM. Besides, the “Des 1 IC50” value in data set [4] is “inactive”.

Take `O=C(Nc1ccc(O)cc1)c1nc(-c2ccc(Cl)cc2)cs1` [Example E-5, 4-(4-Chlorophenyl)-N-(4-hydroxyphenyl)thiazole-2-carboxamide]: the IC50 was 10 to 100 µM in the data set with MCF7 breast cancer cells and 10 to 100 µM in data set [3] (Homo sapiens, PC-3).

`Oc1ccc(Nc2nnc(-c3ccccc3)o2)cc1` [Example E-25, 4-((5-Phenyl-1,3,4-oxadiazol-2-yl)amino)phenol] came in with a melting point of 231 °C. The IC50 in data set [4] fell in the range of 1 to 10 µM.

For the compound `Clc1ccc(-c2nnc(Nc3ccc(-c4nn[nH]n4)cc3)o2)cc1` [Example E-27, 5-(4-Chlorophenyl)-N-[4-(1H-tetrazol-5-yl)phenyl]-1,3,4-oxadiazol-2-amine], the activity at 10 µM in data set [1] was in the range of 20 to 50%. Further, at recombinant human SphK2, the remaining activity at 10 µM was in the range of 50 to 80%. Further, in data set [3] (Homo sapiens, PC-3), the IC50 lay within 10 to 100 µM. In addition, in data set [4], the “Des 1 IC50” value was “inactive”.

As to `O=S1NC(c2ccc(Nc3nnc(-c4ccc(Cl)cc4)o3)cc2)=NO1` (stereo not drawn) [Example E-28, 5-(4-Chlorophenyl)-N-[4-(2-oxido-3H-1,2,3,5-oxathiadiazol-4-yl)phenyl]-1,3,4-oxadiazol-2-amine], in data set [1], the activity at 10 µM is below 1%. Also, the remaining activity at 10 µM on recombinant human SphK2 lay within 5 to 20%. Moreover, the IC50 was 10 to 100 µM in data set [3] (Homo sapiens, PC-3) and 1 to 10 µM in data set [4].

For the compound `Clc1ccc(-c2nnc(NCc3ccncc3)o2)cc1` [Example E-30, 5-(4-Chlorophenyl)-N-(pyridin-4-ylmethyl)-1,3,4-oxadiazol-2-amine], the activity at 10 µM in data set [1] is 1 to 5%. Also, the remaining activity at 10 µM on recombinant human SphK2 was 20 to 50%. The same compound yielded an IC50 in data set [3] (Homo sapiens, PC-3) above 100 µM.

As to “(Z)-4-(5-(4-Chlorophenyl)-1,3,4-oxadiazol-2-yl)-N′-hydroxybenzimidamide [Example E-14]”, the “SphK1% activity at 10 μm” value in data set [1] is 100-150%. Further, the “SphK2% actvity at 10 μm” value at recombinant human SphK2 is listed as 80-100%. Besides, the “EC (effective concentration: concentration required to reduce collagen synthesis to a level equal to or below unstimulated control)” value in data set [5] is 0.5 to 5 µM. Besides, in data set [3], the IC50 is above 100 µM.

By IC50 is commonly meant the concentration at which inhibition is half-maximal. As usually defined, the melting point is the temperature of the solid-liquid transition.

For the origin of these results see patent US9828351B2, “Enzyme interacting agents” (MONASH UNIVERSITY, priority 2014, dated 2017).
